DBAASP
In brackets after ≈: the same amount, converted by molar mass. Several values for one entry are separate records, joined by “and”; a condition that tells them apart may be missing. Equal entries are not always repeated. Each block holds one compound with its values, some of them ahead of it.

What was measured:
Experiment in all cases: ≥ marks a high value that may be exact or a test limit, other limits are often not marked, values filed in µg/mL are converted to µM
[1] = test system: Acinetobacter baumannii
[2] = test system: Klebsiella pneumoniae ATCC 13883
[3] = test system: Klebsiella pneumoniae
[4] = test system: Staphylococcus aureus ATCC 25923
[5] = test system: Enterococcus faecalis ATCC 29212
[6] = test system: Salmonella enterica subsp. enterica serovar Typhimurium ATCC 14028
[7] = test system: Escherichia coli DH5alpha
[8] = test system: Klebsiella pneumoniae ATCC 10031
[9] = test system: Bacillus subtilis 168
[10] = test system: Candida albicans ATCC 90028
[11] = test system: Escherichia coli ATCC 25726
[12] = test system: Klebsiella pneumoniae ATCC 700603
[13] = test system: Pseudomonas aeruginosa ATCC 27853
[14] = test system: Escherichia coli ATCC 25922
[15] = test system: Escherichia coli UB1005
[16] = test system: Salmonella enterica subsp. enterica serovar Typhimurium C77-31
[17] = test system: Staphylococcus aureus ATCC 29213
[18] = test system: Staphylococcus aureus ATCC 43300
[19] = test system: Staphylococcus epidermidis ATCC 12228

MIC [1]: 4.8 µM (≈ 8.59 µg/mL) | MIC [2]: 30 µM (≈ 53.7 µg/mL) | MIC [3]: 1.2 µM (≈ 2.15 µg/mL) | MIC [4]: > 30 µM
Structure (SMILES): CC(C)C[C@H](NC(=O)[C@H](CCCN=C(N)N)NC(=O)[C@H](C)NC(=O)[C@H](C)NC(=O)[C@H](Cc1c[nH]c2ccccc12)NC(=O)CNC(=O)[C@H](CCCN=C(N)N)NC(=O)[C@@H](N)CCCN=C(N)N)C(=O)N[C@@H](Cc1ccccc1)C(=O)N[C@@H](C)C(=O)N[C@@H](C)C(=O)N[C@@H](Cc1ccccc1)C(=O)NCC(=O)N[C@@H](CCCN=C(N)N)C(=O)N[C@@H](CCCN=C(N)N)C(N)=O [RRGWAARLFAAFGRR]

MIC [5]: 10 µM (≈ 24.1 µg/mL) | MIC [2]: 4 µM and 8 µM | MIC [6]: 5 µM and 10 µM
Structure (SMILES): CC[C@H](C)[C@H](NC(=O)CNC(=O)[C@H](CO)NC(=O)[C@H](CC(C)C)NC(=O)[C@@H](NC(=O)[C@H](CCCN=C(N)N)NC(=O)CNC(=O)[C@@H](NC(=O)[C@H](CC(C)C)NC(=O)[C@@H]1CCCN1C(=O)[C@H](CC(C)C)NC(=O)[C@@H](N)Cc1ccccc1)[C@@H](C)CC)C(C)C)C(=O)N[C@@H](CC(C)C)C(=O)NCC(=O)N[C@@H](Cc1c[nH]c2ccccc12)C(=O)N[C@@H](CCCCN)C(=O)N[C@@H](CCCN=C(N)N)C(=O)N[C@@H](CCCCN)C(=O)N[C@@H](CCCN=C(N)N)C(=O)N[C@@H](Cc1ccccc1)C(=O)NCC(N)=O [FLPLIGRVLSGILGWKRKRFG]

MIC [7]: ≥ 46 µM | MIC [8]: ≥ 46 µM | MIC [6]: > 46 µM
Structure (SMILES): CC[C@H](C)[C@@H]1NC(=O)[C@H](CCCCN)NC(=O)[C@@H](NC(=O)[C@@H](NC(=O)[C@@H](NC(=O)[C@@H](NC(=O)[C@@H]2CCCN2C(=O)[C@H](CC(C)C)NC(=O)[C@H](Cc2ccccc2)NC(=O)[C@H](CC(N)=O)NC(=O)[C@H](C)NC(=O)[C@H](C)NC(=O)[C@H](CC(C)C)NC(=O)CNC(=O)[C@H](C)NC(=O)[C@@H](N)Cc2ccccc2)[C@@H](C)O)[C@@H](C)CC)[C@@H](C)CC)CSSC[C@@H](C(=O)O)NC(=O)[C@H](CCCCN)NC(=O)[C@H](Cc2ccc(O)cc2)NC(=O)[C@H](CO)NC1=O [FAGLAANFLPTIICKISYKC]

MIC [7]: 18 µM (≈ 50 µg/mL) | MIC [8]: ≥ 35.9 µM | MIC [6]: 35.9 µM (≈ 99.9 µg/mL)
Structure (SMILES): CC[C@H](C)[C@@H]1NC(=O)[C@H](CCCCN)NC(=O)[C@@H](NC(=O)[C@@H](NC(=O)[C@@H](NC(=O)[C@@H](NC(=O)[C@@H]2CCCN2C(=O)[C@H](CC(C)C)NC(=O)[C@H](Cc2ccccc2)NC(=O)[C@H](CCCCN)NC(=O)[C@H](C)NC(=O)[C@H](C)NC(=O)[C@H](CC(C)C)NC(=O)[C@H](CCCCN)NC(=O)[C@H](CCCCN)NC(=O)[C@H](CC(C)C)NC(=O)[C@H](CC(C)C)NC(=O)[C@H](CCCCN)NC(=O)[C@H](CC(C)C)NC(=O)[C@@H](N)Cc2ccccc2)[C@@H](C)O)[C@@H](C)CC)[C@@H](C)CC)CSSC[C@@H](C(=O)O)NC(=O)[C@H](CCCCN)NC(=O)[C@H](Cc2ccc(O)cc2)NC(=O)[C@H](CO)NC1=O [FLKLLKKLAAKFLPTIICKISYKC]

MIC [9]: ≥ 65 µM | MIC [7]: ≥ 125 µM
Structure (SMILES): CC(C)[C@H](NC(=O)[C@H](CCCCN)NC(=O)[C@H](CCCCN)NC(=O)[C@@H](NC(=O)[C@@H](NC(=O)[C@H](CCCCN)NC(=O)[C@H](CCCCN)NC(=O)[C@@H](NC(=O)[C@@H](NC(=O)[C@H](CCCCN)NC(=O)[C@H](CCCCN)NC(=O)[C@@H](NC(=O)[C@@H](NC(=O)CN)C(C)C)C(C)C)C(C)C)C(C)C)C(C)C)C(C)C)C(N)=O [GVVKKVVKKVVKKV]

MIC [10]: ≥ 80 µM | MIC [11]: 20 µM (≈ 57.4 µg/mL) | MIC [12]: 20 µM (≈ 57.4 µg/mL) | MIC [13]: 20 µM (≈ 57.4 µg/mL) | MIC [4]: 20 µM (≈ 57.4 µg/mL)
Structure (SMILES): CC[C@H](C)[C@H](N)C(=O)N[C@@H](CCCCN)C(=O)N[C@H](C(=O)N1CCC[C@H]1C(=O)N[C@@H](C)C(=O)N[C@@H](Cc1ccccc1)C(=O)N[C@H](C(=O)N[C@@H](CCCCN)C(=O)N[C@@H](CC(=O)O)C(=O)N[C@H](C(=O)N[C@@H](CC(C)C)C(=O)N[C@@H](CCCCN)C(=O)N[C@@H](CCCCN)C(=O)N[C@H](C(=O)N[C@@H](C)C(=O)N[C@@H](CCCCN)C(=O)NCC(=O)N[C@H](C(=O)N[C@H](C(=O)N[C@@H](CO)C(=O)N[C@@H](C)C(=O)N[C@H](C(=O)N[C@@H](C)C(=O)NCC(=O)N[C@@H](C)C(=O)N[C@@H](CC(C)C)C(=O)N[C@H](C(=O)N[C@@H](CCC(N)=O)C(=O)O)[C@@H](C)O)C(C)C)[C@@H](C)CC)C(C)C)C(C)C)[C@@H](C)O)C(C)C)[C@@H](C)CC [IKIPAFVKDTLKKVAKGVISAVAGALTQ]

MIC [14]: > 128 µM | MIC [15]: ≥ 128 µM | MIC [13]: > 128 µM | MIC [6]: > 128 µM | MIC [16]: ≥ 128 µM | MIC [4]: > 128 µM | MIC [17]: > 128 µM | MIC [18]: > 128 µM | MIC [19]: > 128 µM
Structure (SMILES): CC[C@H](C)[C@H](N)C(=O)N[C@@H](CCCN=C(N)N)C(=O)N[C@H](C(=O)N[C@@H](CCCN=C(N)N)C(=O)N1CCC[C@H]1C(=O)N[C@H](C(=O)N[C@@H](CCCN=C(N)N)C(=O)N[C@H](C(=O)N[C@@H](CCCN=C(N)N)C(=O)N1CCC[C@H]1C(=O)O)[C@@H](C)CC)[C@@H](C)CC)[C@@H](C)CC [IRIRPIRIRP]

MIC [15]: 8 µM (≈ 14.6 µg/mL) | MIC [13]: 8 µM (≈ 14.6 µg/mL) | MIC [6]: 16 µM (≈ 29.3 µg/mL) | MIC [16]: 16 µM (≈ 29.3 µg/mL) | MIC [4]: 64 µM (≈ 117 µg/mL) | MIC [18]: 64 µM (≈ 117 µg/mL) | MIC [19]: > 128 µM
Structure (SMILES): CC[C@H](C)[C@H](N)C(=O)N[C@@H](CCCN=C(N)N)C(=O)N[C@H](C(=O)N[C@@H](CCCN=C(N)N)C(=O)N[C@H](C(=O)N[C@@H](CCCN=C(N)N)C(=O)N1CCC[C@H]1C(=O)N[C@H](C(=O)N[C@@H](CCCN=C(N)N)C(=O)N[C@H](C(=O)N[C@@H](CCCN=C(N)N)C(=O)N[C@H](C(=O)N[C@@H](CCCN=C(N)N)C(=O)N1CCC[C@H]1C(=O)O)[C@@H](C)CC)[C@@H](C)CC)[C@@H](C)CC)[C@@H](C)CC)[C@@H](C)CC [IRIRIRPIRIRIRP]

MIC [14]: 4 µM (≈ 11.7 µg/mL) | MIC [15]: 4 µM (≈ 11.7 µg/mL) | MIC [16]: 4 µM (≈ 11.7 µg/mL) | MIC [4]: 4 µM (≈ 11.7 µg/mL) | MIC [17]: 4 µM (≈ 11.7 µg/mL) | MIC [19]: 2 µM (≈ 5.84 µg/mL)
Structure (SMILES): CC[C@H](C)[C@H](NC(=O)[C@H](Cc1c[nH]c2ccccc12)NC(=O)[C@H](CCCCN)NC(=O)[C@H](CC(C)C)NC(=O)[C@@H](NC(=O)[C@H](CCCCN)NC(=O)CNC(=O)[C@@H](NC(=O)[C@H](CCCCN)NC(=O)[C@H](CCCCN)NC(=O)[C@H](CC(C)C)NC(=O)[C@@H](NC(=O)[C@H](CCCCN)NC(=O)[C@H](CCCN=C(N)N)NC(=O)[C@@H](NC(=O)[C@@H](NC(=O)[C@H](CCCCN)NC(=O)[C@H](CCCN=C(N)N)NC(=O)[C@H](CC(C)C)NC(=O)[C@H](CCCN=C(N)N)NC(=O)[C@H](CCCN=C(N)N)NC(=O)[C@H](Cc1ccccc1)NC(=O)[C@@H](NC(=O)CN)C(C)C)C(C)C)[C@@H](C)O)C(C)C)[C@@H](C)CC)C(C)C)C(N)=O [GVFRRLRKVTRKVLKKIGKVLKWI]

MIC [10]: ≥ 160 µM | MIC [11]: ≥ 40 µM | MIC [4]: 80 µM (≈ 229 µg/mL)
Structure (SMILES): CC[C@H](C)[C@H](N)C(=O)N[C@@H](CCCCN)C(=O)N[C@H](C(=O)N1CCC[C@H]1C(=O)N1CCC[C@H]1C(=O)N[C@H](C(=O)N[C@H](C(=O)N[C@@H](CCCCN)C(=O)N[C@@H](CC(=O)O)C(=O)N[C@H](C(=O)N[C@@H](CC(C)C)C(=O)N[C@@H](CCCCN)C(=O)N[C@@H](CCCCN)C(=O)N[C@H](C(=O)N[C@@H](C)C(=O)N[C@@H](CCCCN)C(=O)NCC(=O)N[C@H](C(=O)N[C@@H](CC(C)C)C(=O)N[C@@H](CO)C(=O)N[C@H](C(=O)N[C@H](C(=O)N[C@@H](C)C(=O)NCC(=O)N[C@@H](C)C(=O)N[C@@H](CC(C)C)C(=O)N[C@@H](CO)C(=O)N[C@H](C(=O)O)[C@@H](C)O)[C@@H](C)CC)[C@@H](C)O)C(C)C)C(C)C)[C@@H](C)O)C(C)C)[C@@H](C)CC)[C@@H](C)CC [IKIPPIVKDTLKKVAKGVLSTIAGALST]

MIC [14]: 4 µM (≈ 7.02 µg/mL) | MIC [15]: 4 µM (≈ 7.02 µg/mL) | MIC [16]: 16 µM (≈ 28.1 µg/mL) | MIC [4]: 16 µM (≈ 28.1 µg/mL) | MIC [17]: 8 µM (≈ 14 µg/mL) | MIC [19]: 8 µM (≈ 14 µg/mL)
Structure (SMILES): CC(C)C[C@H](NC(=O)[C@H](Cc1c[nH]c2ccccc12)NC(=O)[C@H](CCCCN)NC(=O)[C@H](CCCN=C(N)N)NC(=O)[C@@H](NC(=O)[C@H](Cc1c[nH]c2ccccc12)NC(=O)[C@H](CCCCN)NC(=O)[C@H](CCCN=C(N)N)NC(=O)[C@H](CC(C)C)NC(=O)[C@H](Cc1c[nH]c2ccccc12)NC(=O)[C@@H](N)CCCN=C(N)N)[C@@H](C)O)C(=O)N[C@@H](CCCCN)C(N)=O [RWLRKWTRKWLK]
